According to US12629363B2, “Prophylaxis and treatment of angioedema” (PHARVARIS GMBH, priority 2020, dated 2026):
Where two headings read alike, the source gives them in different places.

Experiments:
[1] = Single ascending dose study in healthy volunteers, plasma PK (Example 2); format: in vivo, human; settings: for concentration at 0.25 h: read-out: C0.25h; for Vd/F: read-out: Vz/F
[2] = Plasma protein binding; format: in vitro ADME; settings: human
[3] = Ascending dose study 22-50 mg in healthy volunteers, safety and tolerability (Example 4); format: in vivo, human
[4] = target: T1, endogenous human B2 receptors (Homo sapiens, UniProt P30411); assay: Antagonist potency at endogenous human B2 receptors
T1 sequence (P30411 1-391): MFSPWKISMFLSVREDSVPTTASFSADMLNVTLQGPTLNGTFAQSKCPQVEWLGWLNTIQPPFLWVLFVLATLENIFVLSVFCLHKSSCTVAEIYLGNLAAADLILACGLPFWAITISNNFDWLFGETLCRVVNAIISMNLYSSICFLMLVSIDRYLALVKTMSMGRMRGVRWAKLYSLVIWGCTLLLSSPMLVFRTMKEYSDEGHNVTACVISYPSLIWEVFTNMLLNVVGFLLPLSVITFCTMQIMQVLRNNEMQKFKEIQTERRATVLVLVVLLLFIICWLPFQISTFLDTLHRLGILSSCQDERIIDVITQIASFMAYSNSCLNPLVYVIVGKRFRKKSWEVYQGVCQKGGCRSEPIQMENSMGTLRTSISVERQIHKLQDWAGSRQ

[5] = target: CYP3A4 (Homo sapiens, UniProt P08684); assay: In vitro CYP3A4 substrate data; format: in vitro ADME
[6] = human, plasma, oral, 2 mg, fasted, mean
[7] = human, plasma, oral, 4.5 mg, fasted, mean
[8] = human, plasma, oral, 12 mg, fasted, mean
[9] = human, plasma, oral, 22 mg, after HCHF breakfast, mean
[10] = human, plasma, oral, 22 mg, fasted, mean

Sequence of CYP3A4 (P08684 whole entry): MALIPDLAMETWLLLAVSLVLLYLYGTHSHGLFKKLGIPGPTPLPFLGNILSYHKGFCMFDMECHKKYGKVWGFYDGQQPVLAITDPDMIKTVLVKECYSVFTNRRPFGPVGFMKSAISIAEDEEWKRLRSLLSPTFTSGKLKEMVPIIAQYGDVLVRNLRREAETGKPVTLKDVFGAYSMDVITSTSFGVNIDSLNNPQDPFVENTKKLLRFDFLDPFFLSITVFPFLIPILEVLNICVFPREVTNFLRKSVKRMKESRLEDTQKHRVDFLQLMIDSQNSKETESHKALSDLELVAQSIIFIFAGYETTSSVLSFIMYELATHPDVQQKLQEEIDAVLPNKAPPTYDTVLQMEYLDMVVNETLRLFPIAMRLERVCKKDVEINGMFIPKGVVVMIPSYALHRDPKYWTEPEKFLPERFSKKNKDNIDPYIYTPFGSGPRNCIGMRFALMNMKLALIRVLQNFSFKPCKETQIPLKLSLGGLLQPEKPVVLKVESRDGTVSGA

`[2H][C@@](C)(NC(=O)COC(F)F)c1cc(F)cc(Cl)c1COc1cccc2c(-c3ncnn3C)cc(C)nc12` [compound of formula (I)] gave a half-life ([1]; human, plasma, oral, 1 mg, fasted, mean, read-out: t1/2 (converted)) of 3.49 h, a Tmax ([1]; human, plasma, oral, 1 mg, fasted, median, read-out: tmax) of 0.5 h and an AUC(0-t) [1, 6] of 66 ng·h/mL. It also gave a Cmax [1, 6] of 19.8 ng/mL, a concentration at 0.25 h [1, 6] of 12.9 ng/mL and a concentration at 12 h ([1]; human, plasma, oral, 2 mg, fasted, mean, read-out: C12h) of 0.81 ng/mL. The Vd/F [1, 6] was 181 L, the half-life ([1]; human, plasma, oral, 2 mg, fasted, mean, read-out: t1/2 (converted)) was 4.26 h and the Tmax ([1]; human, plasma, oral, 2 mg, fasted, median, read-out: tmax) was 0.75 h. For the same compound, the AUC(0-t) [1, 7] was 129 ng·h/mL, the Cmax [1, 7] was 32.9 ng/mL and the concentration at 0.25 h [1, 7] was 13 ng/mL. The concentration at 12 h ([1]; human, plasma, oral, 4.5 mg, fasted, mean, read-out: C12h) was 1.93 ng/mL, the Vd/F [1, 7] was 222 L and the half-life ([1]; human, plasma, oral, 4.5 mg, fasted, mean, read-out: t1/2 (converted)) was 4.36 h. For the same compound, the Tmax ([1]; human, plasma, oral, 4.5 mg, fasted, median, read-out: tmax) was 1 h, the AUC(0-t) [1, 8] was 369 ng·h/mL and the Cmax [1, 8] was 97.3 ng/mL. For the same compound, the concentration at 0.25 h [1, 8] was 60.3 ng/mL, the concentration at 12 h ([1]; human, plasma, oral, 12 mg, fasted, mean, read-out: C12h) was 5.58 ng/mL and the Vd/F [1, 8] was 235 L. The half-life ([1]; human, plasma, oral, 12 mg, fasted, mean, read-out: t1/2 (converted)) was 4.25 h, the Tmax ([1]; human, plasma, oral, 12 mg, fasted, median, read-out: tmax) was 0.5 h and the Tmax ([1]; human, plasma, oral, 22 mg, HCHF breakfast vs fasted, read-out: delay of median tmax after HCHF breakfast) was ~2 h. It also gave an AUC(0-t) [1, 9] of 1020 ng·h/mL, a Cmax [1, 9] of 145 ng/mL and a concentration at 0.25 h [1, 9] of 48.3 ng/mL. It also gave a concentration at 12 h ([1]; human, plasma, oral, 22 mg, after HCHF breakfast, mean, read-out: C12h) of 19.6 ng/mL, a Vd/F [1, 9] of 180 L and a half-life ([1]; human, plasma, oral, 22 mg, after HCHF breakfast, mean, read-out: t1/2 (converted)) of 5.31 h. It also gave a Tmax ([1]; human, plasma, oral, 22 mg, after HCHF breakfast, median, read-out: tmax) of 3 h, an AUC(0-t) [1, 10] of 681 ng·h/mL and a Cmax [1, 10] of 213 ng/mL. It also gave a concentration at 0.25 h [1, 10] of 143 ng/mL, a concentration at 12 h ([1]; human, plasma, oral, 22 mg, fasted, mean, read-out: C12h) of 8.34 ng/mL and a Vd/F [1, 10] of 252 L. The half-life ([1]; human, plasma, oral, 22 mg, fasted, mean, read-out: t1/2 (converted)) was 5.61 h, the Tmax ([1]; human, plasma, oral, 22 mg, fasted, median, read-out: tmax) was 0.75 h and the concentration at 12 h ([1]; human, plasma, oral, 22 mg, fed (HCHF breakfast), read-out: Mean (±SD) C12h) was 19.6 ± 10.7 ng/mL. The concentration at 24 h ([1]; human, plasma, oral, 22 mg, fed (HCHF breakfast), read-out: Mean C24h) was 5.39 ± 5.47 ng/mL, the half-life ([1]; human, plasma, po, single oral doses 1-22 mg, read-out: mean t1/2 between doses) was 3.5 to 5.6 h and the “dose proportionality of PK (Cmax, AUClast, AUCinf)” value ([1]; single oral dose 1 mg to 22 mg, fasting) was “Dose proportional PK”. The fraction unbound [2] was 0.038, the “changes in vital signs, laboratory, or ECG parameters vs placebo” value ([3]; 22-50 mg single oral doses) was “no clinically significant changes” and the serious adverse effects ([3]; 22-50 mg single oral doses) was “no serious adverse effects reported”. For the same compound, the safety and tolerability ([3]; doses up to 40 mg under fasting and 50 mg under fed conditions) was “safe and well tolerated”, the “antagonist potency at endogenous human B2 receptors” value [4] was 0.35 nM and the CYP3A4 substrate [5] was “substrate of CYP3A4”.
